In the oligonucleotide strings, read from the 5' end, every base follows the letter of its sugar. An asterisk marks phosphorothioate; unmarked linkages are phosphodiester. Other units and linkages are bracketed, terminal groups are in braces. A string of capitals states the bases alone. e = 2'-O-(2-methoxyethyl) (MOE); [5mC] = 5-methylcytosine

In series [1] the test system is adipocytes. The series is described as follows: Triglyceride accumulation assay in adipocytes. The series is classed as cell-based, human.
The test system of series [2] is HuVECs. The experiment in a line: Endothelial tube formation assay in HuVECs. To be noted: 75 nM oligomeric compound.
Series [3] deals with aP2. The series is described as follows: aP2 mRNA expression in adipocytes (real-time PCR). It counts as cell-based, human. To be noted: for aP2 mRNA: Table 75.
Series [4] deals with HSL. The series is described as follows: HSL mRNA expression in adipocytes (real-time PCR). The series is classed as cell-based, human. The following applies: for HSL mRNA: differentiating adipocytes transfected with oligomeric compound.
Series [5] relates to Glut4. The series is described as follows: Glut4 mRNA expression in adipocytes (real-time PCR). It counts as cell-based, human. The following applies: for GLUT4 mRNA: differentiating adipocytes transfected with oligomeric compound.
Series [6] relates to PPARγ. The experiment in a line: PPARγ mRNA expression in adipocytes (real-time PCR). It counts as cell-based, human. The following applies: for PPAR gamma mRNA: differentiating adipocytes transfected with oligomeric compound.
[7] abbreviates: differentiating adipocytes transfected with oligomeric compound, Table 75.
Setting [8] is: differentiating adipocytes transfected with oligomeric compound.
Setting [9] is: adipocytes, 250 nM oligomeric compound, day nine post-transfection, relative to control (1.0), Table 16.

On to “327886 (antisense e[5mC]*eG*e[5mC]*eG*eT*eA*e[5mC]*e[5mC]*eA*eA*eA*eA*eG*eT*eA*eA*eT*eA*eA*eT*eG) [compound 327886]”, for which, in series [1] (setting [7]), the “TG (triglyceride accumulation)” value is 12 percentage of untreated control (UTC). In addition, the “% Activity Relative to UTC (tube formation)” value (“% Activity Relative to UTC” for short) in series [2] (Table 56) is 42.9%. For the same substance, the “aP2 mRNA” value in series [3] (setting [8]) is given as 19 percentage of untreated control (UTC). Moreover, the “HSL mRNA” value in series [4] (Table 75) is reported as 22 percentage of untreated control (UTC). Further, in series [5] (Table 75), the “GLUT4 mRNA” value was 13 percentage of untreated control (UTC). Besides, the “PPAR gamma mRNA” value in series [6] (Table 75) is on record as 25 percentage of untreated control (UTC).

With “327967 (antisense eA*e[5mC]*eT*eG*eT*eA*e[5mC]*eA*eA*eA*e[5mC]*eT*eA*e[5mC]*eT*eA*e[5mC]*e[5mC]*eT*e[5mC]*eA) [compound 327967]”, in series [1] (adipocytes, 250 nM oligomeric compound, relative to control (1.0), Table 16), the “TG (triglyceride accumulation)” value turned out to be 0.90. The “% Activity Relative to UTC” value in series [2] (Table 59) is listed as 93.3%. Moreover, in series [3] (setting [9]), the “AP2 (mRNA expression)” value is 0.86. Also, the “HSL (mRNA expression)” value in series [4] (setting [9]) stood at 0.97. The “Glut4 (mRNA expression)” value in series [5] (setting [9]) is 0.56. Further, the “PPAR gamma (mRNA expression)” value in series [6] (setting [9]) is on record as 0.89.

With “327951 (antisense e[5mC]*eA*e[5mC]*eA*eA*eA*e[5mC]*e[5mC]*eA*eT*eT*eA*eT*eG*eT*eG*e[5mC]*eT*eG*e[5mC]*eT*eA) [compound 327951]”, the “TG (triglyceride accumulation)” value in series [1] (setting [8]) is reported as 76 percentage of untreated control (UTC). Moreover, the “% Activity Relative to UTC” value in series [2] (Table 59) was 73.3%. In series [3] (setting [8]), the “AP2 mRNA” value was 91 percentage of untreated control (UTC). In series [4], the “HSL mRNA” value is listed as 100 percentage of untreated control (UTC). The “GLUT4 mRNA” value in series [5] was 81 percentage of untreated control (UTC). Moreover, in series [6], the “PPAR gamma mRNA” value is 84 percentage of untreated control (UTC).

“327916 (antisense eT*eG*eG*e[5mC]*eA*eT*eT*e[5mC]*eA*e[5mC]*e[5mC]*eG*e[5mC]*eG*eT*eG*e[5mC]*e[5mC]*eT*eT*eA*eA) [compound 327916]”: the “TG (triglyceride accumulation)” value in series [1] (setting [7]) was 56 percentage of untreated control (UTC). Moreover, the “% Activity Relative to UTC” value in series [2] (Table 57) came out at 96.6%. The “aP2 mRNA” value in series [3] (setting [8]) was 67 percentage of untreated control (UTC). In series [4] (Table 75), the “HSL mRNA” value was 64 percentage of untreated control (UTC). For the same substance, the “GLUT4 mRNA” value in series [5] (Table 75) is recorded as 51 percentage of untreated control (UTC). For the same substance, the “PPAR gamma mRNA” value in series [6] (Table 75) is given as 71 percentage of untreated control (UTC).

Regarding “327885 (antisense eA*e[5mC]*eT*eA*e[5mC]*e[5mC]*eT*eG*e[5mC]*eA*e[5mC]*eT*eG*eT*eA*eA*eG*e[5mC]*eA*e[5mC]*eT*eT*eT*eG) [compound 327885]”, the “TG (triglyceride accumulation)” value in series [1] (setting [7]) is 29 percentage of untreated control (UTC). Moreover, in series [2] (Table 56), the “% Activity Relative to UTC” value was found to be 50.0%. For the same substance, the “aP2 mRNA” value in series [3] (setting [8]) is on record as 69 percentage of untreated control (UTC). Besides, the “HSL mRNA” value in series [4] (Table 75) was 57 percentage of untreated control (UTC). Besides, the “GLUT4 mRNA” value in series [5] (Table 75) is listed as 40 percentage of untreated control (UTC). Further, in series [6] (Table 75), the “PPAR gamma mRNA” value is given as 59 percentage of untreated control (UTC).

In the case of “327895 (antisense eA*e[5mC]*eA*eA*eA*e[5mC]*eA*e[5mC]*e[5mC]*eA*eT*eT*eG*eT*e[5mC]*eA*e[5mC]*eA*e[5mC]*eT*e[5mC]*e[5mC]*eA) [compound 327895]”, the “TG (triglyceride accumulation)” value in series [1] (setting [7]) is given as 76 percentage of untreated control (UTC). Further, the “% Activity Relative to UTC” value in series [2] (Table 56) is reported as 100.0%. Further, the “aP2 mRNA” value in series [3] (setting [8]) is 90 percentage of untreated control (UTC). Moreover, the “HSL mRNA” value in series [4] (Table 75) was 88 percentage of untreated control (UTC). The “GLUT4 mRNA” value in series [5] (Table 75) is listed as 76 percentage of untreated control (UTC). Moreover, the “PPAR gamma mRNA” value in series [6] (Table 75) is 86 percentage of untreated control (UTC).

For the origin of these results see US8178506B2, “Oligomeric compounds and compositions for use in modulation of small non-coding RNAs” (Regulus Therapeutics Inc., priority 2003, dated 2012).
